Calls of active or inactive are those of the source.
Legend:
[1] = non-specific cell cytotoxicity, dose response, cytotoxicity control for PAX8 inhibitor project, plate reader, dry powder samples (AID 743021); assay type: functional, cell-based
[2] = test system: BJ; assay: cytotoxicity toward BJ-TERT-LT-ST fibroblasts, dose response, cell-based, RAS-independent, luminescence (AID 1935); assay type: functional; details: Homo sapiens;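 note: BJ fibroblasts immortalized with TERT plus LT and ST oncogenes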
[3] = growth suppression of PTEN-null colon cells, dose response, cell-based, HCT116 PTEN knockout (AID 1047); assay type: functional;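 note: HCT116 colon tumor cells with PTEN knocked out; cells exposed to compound for 60 hours before readout; potency for loss of cell viability measured by luminescence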
[4] = cytotoxicity toward DRD oncogenic fibroblasts, dose response, cell-based, non-viral oncogenic, luminescence (AID 1934); assay type: functional; details: Homo sapiens
[5] = target: T1, Caspase-3 (Homo sapiens, UniProt P42574); assay: caspase-3 inhibitors as off-family protease, SAR follow-up, selectivity assay for SENP protease inhibitor project, biochemical, luminescence, set 2 (AID 588599); assay type: functional
T1 sequence (P42574 whole entry): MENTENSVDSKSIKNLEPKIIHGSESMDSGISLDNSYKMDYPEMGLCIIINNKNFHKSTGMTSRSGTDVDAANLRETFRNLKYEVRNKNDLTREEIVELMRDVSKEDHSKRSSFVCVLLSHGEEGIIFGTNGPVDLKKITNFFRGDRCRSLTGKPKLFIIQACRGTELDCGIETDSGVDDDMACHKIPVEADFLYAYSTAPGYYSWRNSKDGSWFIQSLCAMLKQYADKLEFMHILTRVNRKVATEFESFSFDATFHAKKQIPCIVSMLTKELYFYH

[6] = test system: HEK293; assay: cells; assay type: functional, cell-based; details: Homo sapiens
[7] = target: T2, Sentrin-specific protease 6 (Homo sapiens, UniProt Q9GZR1); assay: SENP6 protease inhibitors, SAR follow-up, biochemical, luminescence, set 2 (AID 588598); assay type: functional
T2 sequence (Q9GZR1 whole entry): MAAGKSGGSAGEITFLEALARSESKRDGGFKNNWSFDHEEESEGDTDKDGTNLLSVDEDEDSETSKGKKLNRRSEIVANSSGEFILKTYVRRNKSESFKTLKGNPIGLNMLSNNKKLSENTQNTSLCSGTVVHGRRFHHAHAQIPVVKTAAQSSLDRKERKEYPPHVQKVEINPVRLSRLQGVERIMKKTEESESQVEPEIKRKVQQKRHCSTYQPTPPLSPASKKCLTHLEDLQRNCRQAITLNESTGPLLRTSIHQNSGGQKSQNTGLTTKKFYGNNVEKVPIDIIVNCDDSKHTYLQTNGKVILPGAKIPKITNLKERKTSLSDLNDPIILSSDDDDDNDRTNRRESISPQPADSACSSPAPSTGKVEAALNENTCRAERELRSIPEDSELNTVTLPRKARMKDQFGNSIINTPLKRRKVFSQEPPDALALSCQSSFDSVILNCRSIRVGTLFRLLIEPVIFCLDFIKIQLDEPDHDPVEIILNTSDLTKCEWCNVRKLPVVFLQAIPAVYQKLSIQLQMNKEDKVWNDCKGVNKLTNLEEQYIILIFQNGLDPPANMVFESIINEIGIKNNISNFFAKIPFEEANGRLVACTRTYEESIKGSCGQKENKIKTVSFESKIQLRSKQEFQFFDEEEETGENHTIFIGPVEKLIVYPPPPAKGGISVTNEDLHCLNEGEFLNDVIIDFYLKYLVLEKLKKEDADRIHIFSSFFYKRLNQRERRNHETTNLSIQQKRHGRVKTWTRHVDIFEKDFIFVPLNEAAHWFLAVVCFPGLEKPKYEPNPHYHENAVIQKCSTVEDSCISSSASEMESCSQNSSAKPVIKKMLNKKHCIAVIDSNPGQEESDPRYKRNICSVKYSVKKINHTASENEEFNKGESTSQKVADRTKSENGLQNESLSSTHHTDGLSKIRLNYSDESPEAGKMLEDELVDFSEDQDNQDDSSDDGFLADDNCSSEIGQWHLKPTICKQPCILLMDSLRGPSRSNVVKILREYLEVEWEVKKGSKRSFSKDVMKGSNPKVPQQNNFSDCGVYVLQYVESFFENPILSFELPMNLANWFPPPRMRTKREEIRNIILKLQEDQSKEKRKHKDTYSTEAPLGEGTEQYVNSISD

[8] = target: T3, Hexokinase HKDC1 (Homo sapiens, UniProt Q2TB90); assay: HKDC1 hexokinase inhibitors, dose response, biochemical, W721R variant (AID 504729); assay type: functional
T3 sequence (Q2TB90 whole entry): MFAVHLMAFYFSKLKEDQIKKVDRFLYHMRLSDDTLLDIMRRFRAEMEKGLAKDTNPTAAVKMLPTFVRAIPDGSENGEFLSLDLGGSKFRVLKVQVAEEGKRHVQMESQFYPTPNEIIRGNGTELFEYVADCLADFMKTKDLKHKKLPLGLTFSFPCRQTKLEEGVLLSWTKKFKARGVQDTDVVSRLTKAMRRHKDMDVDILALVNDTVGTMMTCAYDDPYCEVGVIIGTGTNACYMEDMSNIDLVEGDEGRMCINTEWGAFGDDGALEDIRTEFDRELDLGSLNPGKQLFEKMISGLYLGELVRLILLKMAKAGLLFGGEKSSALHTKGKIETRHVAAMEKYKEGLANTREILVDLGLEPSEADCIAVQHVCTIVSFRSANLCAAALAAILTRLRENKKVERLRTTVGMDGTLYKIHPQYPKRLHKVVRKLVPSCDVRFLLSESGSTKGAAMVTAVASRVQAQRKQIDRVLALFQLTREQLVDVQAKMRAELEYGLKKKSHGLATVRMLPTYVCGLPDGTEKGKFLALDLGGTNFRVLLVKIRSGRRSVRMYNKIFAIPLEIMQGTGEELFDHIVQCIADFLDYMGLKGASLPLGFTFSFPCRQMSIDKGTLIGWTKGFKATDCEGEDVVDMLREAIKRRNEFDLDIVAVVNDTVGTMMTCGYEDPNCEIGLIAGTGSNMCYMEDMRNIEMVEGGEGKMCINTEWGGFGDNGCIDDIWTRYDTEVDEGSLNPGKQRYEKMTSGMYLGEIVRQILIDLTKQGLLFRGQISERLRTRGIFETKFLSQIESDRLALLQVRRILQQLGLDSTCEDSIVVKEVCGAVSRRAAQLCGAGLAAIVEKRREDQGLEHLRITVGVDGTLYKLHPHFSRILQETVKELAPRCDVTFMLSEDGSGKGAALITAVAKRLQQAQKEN

[9] = target: T3, Hexokinase HKDC1; assay: SAR analysis of small molecule inhibitors of hexokinase domain containing I (HKDC1). [Related pubchem assays (depositor defined):AID493160, AID493190]; assay type: functional
[10] = target: Genome polyprotein (dengue virus type 2, UniProt P29990); assay: Dengue-2 NS5 methyltransferase inhibitors, primary screen, biochemical, confirmation dose response (AID 588689); assay type: functional
Genome polyprotein, sequence (P29990 2492-3391 limits assumed): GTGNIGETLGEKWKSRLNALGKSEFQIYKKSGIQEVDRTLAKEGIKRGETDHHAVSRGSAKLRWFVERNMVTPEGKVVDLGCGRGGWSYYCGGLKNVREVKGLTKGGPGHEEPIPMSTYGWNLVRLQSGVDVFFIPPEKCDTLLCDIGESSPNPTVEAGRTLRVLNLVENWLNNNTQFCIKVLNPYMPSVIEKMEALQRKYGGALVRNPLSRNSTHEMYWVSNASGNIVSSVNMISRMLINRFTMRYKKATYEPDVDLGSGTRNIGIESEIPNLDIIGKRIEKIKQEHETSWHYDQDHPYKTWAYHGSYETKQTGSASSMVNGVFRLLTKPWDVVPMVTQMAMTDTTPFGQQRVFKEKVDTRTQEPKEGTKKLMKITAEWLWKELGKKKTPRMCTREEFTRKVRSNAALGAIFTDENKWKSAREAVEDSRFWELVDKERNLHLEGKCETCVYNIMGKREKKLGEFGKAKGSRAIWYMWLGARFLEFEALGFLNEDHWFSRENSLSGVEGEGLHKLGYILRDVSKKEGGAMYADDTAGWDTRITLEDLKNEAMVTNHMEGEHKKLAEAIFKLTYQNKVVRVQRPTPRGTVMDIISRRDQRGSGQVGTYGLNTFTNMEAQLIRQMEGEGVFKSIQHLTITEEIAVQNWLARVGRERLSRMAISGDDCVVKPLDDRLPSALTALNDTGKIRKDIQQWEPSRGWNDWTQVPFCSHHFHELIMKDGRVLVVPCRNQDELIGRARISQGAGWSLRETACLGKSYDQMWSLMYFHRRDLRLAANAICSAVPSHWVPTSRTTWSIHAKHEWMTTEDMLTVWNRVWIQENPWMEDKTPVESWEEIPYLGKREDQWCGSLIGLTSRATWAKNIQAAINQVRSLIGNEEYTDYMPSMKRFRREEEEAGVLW

In the case of `Cc1nn(-c2ccccc2)c(Cl)c1CN(C(=O)CCl)c1ccc(Cl)cc1`, the AC50 [1] is reported as 6.9 µM (active), the EC50 [2] is reported as 3.36 µM (inconclusive) and the EC50 [3] is reported as 4.07 µM (active). For the same compound, the EC50 [4] was 1.92 µM (active).
In the case of `Oc1ccccc1/C=C/c1noc(-c2ccccc2O)n1`, the IC50 [5] is reported as > 99 µM (inactive), the IC50 [6] is reported as > 67.5 µM (inactive) and the IC50 [7] is reported as 62.4 µM (active).
In the case of `O=C(O)CSc1cc(NS(=O)(=O)c2ccc(Cl)cc2)c2ccccc2c1O`, the IC50 [8] is reported as 4.67 µM (active), the IC50 [9] is reported as 8.9 µM (active) and the IC50 [10] is reported as 7.15 µM (active).

Source: ChEMBL document CHEMBL1201862, “PubChem BioAssay data set” (2004)
